“Also recorded” adds a separate entry of the source. One block for each molecule: values may come before it.
Columns and labels:
U87MG cells [1] = assay: Ang2 dependent adhesion of U87MG cells to Ang2-coated wells (CellTiter-Glo luminescence); assay type: cell-based, human; conditions: for inhibition activity against the binding of Ang2 and integrin: FIG. 10, U87MG adhesion to Ang2-coated wells, each peptide 100 μg/ml; for Ang2 dependent cell adhesion inhibition activity: Example 5.2, peptide 100 μg/ml, among the 41 peptides
Method: A 96-well plate was treated with 100 μl of a solution obtained by diluting Ang2 (R&D systems; 623-AN-025/CF) in a phosphate buffered saline (PBS) at a concentration of 10 μg/ml and incubated at 4° C. for 16 hours so that the wells were coated with Ang2. Thereafter, the Ang2-coated 96 wells were washed twice with PBS, treated with 200 μl of PBS containing 2% (v/v) bovine serum albumin (BSA) and then incubated at a room temperature for 2 hours for blocking. For a negative control, wells that were blocked without Ang2 coating (i.e., treated with BSA only) were prepared.
150 μl of the thus obtained cell suspension was added to each well of the 96-well plate that was prepared by performing coating and blocking procedures and incubating the plate in a CO2 incubator at 37° C. for 2 hours to induce cell adhesion.
Then, the plate was washed 4 times with serum-free media that was warmed to 37° C. to remove cells that were not adhered. The adhesion level of cells was quantified by adding 200 μl of CellTiter-Glo reagent (Promega) diluted in IMDM at 1:1 and then, measuring luminescence at EnVision® Multilabel Reader (PerkinElmer) after 10 min.
When Ang2-coated plates were treated with U87MG cells in accordance with the same methods as in Example 1.1, they were co-treated with one of the 41 peptides derived from Ang2 set forth in Table 2 to investigate the inhibition effects of the peptides against the adhesion of U87MG cells (see FIG. 8). Each peptide was treated at a concentration of 100 μg/ml and the number of U87MG cells treated with each peptide was about 4×10^4. The measurement of cell adhesion level was carried out in the same manner as Example 1.1. That is, after the addition of 200 μl of CellTiter-Glo reagent (Promega) diluted in IMDM at 1:1, their luminescence was measured at EnVision® Multilabel Reader (PerkinElmer) after 10 min.
When Ang2-coated plates were treated with U87MG cells in accordance with the same methods as in Example 1.1, they were co-treated with the C-body produced in Example 8 to investigate inhibition effects of C-body treatment on the adhesion of U87MG cells. The C-body was treated at a concentration of 20 μg/ml or 5 μg/ml, and the number of U87MG cells used was about 4×10^4 at each concentration.

Tie2 proteins (Q02763) = molecular target: T1, Tie2 proteins (Q02763) (Homo sapiens, UniProt Q02763); assay: ELISA: binding of Ang2 protein (wild type or Q362A) to coated Tie2; conditions: Tie2 coated ELISA plates; FIG. 12
T1 construct: purchased R&D systems
T1 sequence (Q02763 23-1124): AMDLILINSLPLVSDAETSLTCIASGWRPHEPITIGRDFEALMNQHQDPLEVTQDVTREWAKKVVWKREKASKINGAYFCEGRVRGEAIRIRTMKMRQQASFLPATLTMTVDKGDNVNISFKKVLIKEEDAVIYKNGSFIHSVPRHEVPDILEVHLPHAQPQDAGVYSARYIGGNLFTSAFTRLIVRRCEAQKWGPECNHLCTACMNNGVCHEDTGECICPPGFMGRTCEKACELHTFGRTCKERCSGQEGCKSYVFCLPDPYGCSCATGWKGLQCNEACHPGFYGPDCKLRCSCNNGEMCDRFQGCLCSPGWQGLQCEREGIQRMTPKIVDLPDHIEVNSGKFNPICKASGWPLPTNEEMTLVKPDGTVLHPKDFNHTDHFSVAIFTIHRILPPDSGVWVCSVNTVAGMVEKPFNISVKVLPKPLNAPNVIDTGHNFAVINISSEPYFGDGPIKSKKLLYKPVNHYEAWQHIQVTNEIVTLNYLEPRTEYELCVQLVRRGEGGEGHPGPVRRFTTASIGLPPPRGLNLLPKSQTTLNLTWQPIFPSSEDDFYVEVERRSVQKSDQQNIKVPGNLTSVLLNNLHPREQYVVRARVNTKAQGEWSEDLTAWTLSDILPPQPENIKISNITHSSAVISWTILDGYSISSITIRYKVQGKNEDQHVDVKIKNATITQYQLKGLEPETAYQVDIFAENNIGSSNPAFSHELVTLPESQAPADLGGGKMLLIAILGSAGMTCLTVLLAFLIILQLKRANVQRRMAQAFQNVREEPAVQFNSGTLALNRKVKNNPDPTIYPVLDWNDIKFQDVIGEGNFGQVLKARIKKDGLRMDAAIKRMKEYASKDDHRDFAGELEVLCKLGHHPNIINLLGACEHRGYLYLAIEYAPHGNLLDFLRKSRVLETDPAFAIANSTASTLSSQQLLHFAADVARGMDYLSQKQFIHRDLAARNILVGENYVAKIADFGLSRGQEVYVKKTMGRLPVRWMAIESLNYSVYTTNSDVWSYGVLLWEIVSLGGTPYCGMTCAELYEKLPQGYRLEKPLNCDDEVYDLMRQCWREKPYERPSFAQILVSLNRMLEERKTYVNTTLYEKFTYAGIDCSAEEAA
Source text: The Y axis represents binding levels of each Ang2 protein to coated Tie2 or negative control BSA.

U87MG cells [2] = assay: U87MG cancer cell invasion in matrigel-coated transwell chamber; assay type: cell-based, human; conditions: 5 μg/ml in lower chamber, 48 hours; FIG. 14
Method: U87MG cells which underwent serum starvation for two days were detached using a cell dissociation solution (EDTA solution) and diluted in 0% serum IMDM media, and then 7.5×10^4 of the cells were each treated in an upper chamber of a matrigel-coated transwell chamber (24 wells, BD bioscience). Lower chambers were filled with a diluent obtained by diluting wild type Ang2 protein or its Q362A modified form (see Example 6) in 2% serum IMDM media at a concentration of 5 μg/ml. After 48 hours passed, the cells were dyed using calcein-AM solution (4 μg/ml; BD Biosciences) and observed using a fluorescence microscope to measure the number of the cells which invaded toward the bottom.
The left part of FIG. 14 indicates the number of the cells that migrated to the lower chambers, and the right part illustrates the observation results of fluorescence treatment of the cells which migrated to the lower chambers, using a fluorescence microscope. In FIG. 14, ‘−’ indicates a negative control where the lower chamber was not treated with Ang2 protein or its modified form.

integrin (αVβ3) = molecular target: T2, integrin (αVβ3) (Homo sapiens, UniProt P05106+P06756); assay: ELISA: binding of Ang2 protein (wild type or Q362A) to coated integrin; conditions: 5 μg/ml protein, FIG. 11
T2 construct: purchased R&D systems
T2 sequence (P06756 31-889 limits assumed): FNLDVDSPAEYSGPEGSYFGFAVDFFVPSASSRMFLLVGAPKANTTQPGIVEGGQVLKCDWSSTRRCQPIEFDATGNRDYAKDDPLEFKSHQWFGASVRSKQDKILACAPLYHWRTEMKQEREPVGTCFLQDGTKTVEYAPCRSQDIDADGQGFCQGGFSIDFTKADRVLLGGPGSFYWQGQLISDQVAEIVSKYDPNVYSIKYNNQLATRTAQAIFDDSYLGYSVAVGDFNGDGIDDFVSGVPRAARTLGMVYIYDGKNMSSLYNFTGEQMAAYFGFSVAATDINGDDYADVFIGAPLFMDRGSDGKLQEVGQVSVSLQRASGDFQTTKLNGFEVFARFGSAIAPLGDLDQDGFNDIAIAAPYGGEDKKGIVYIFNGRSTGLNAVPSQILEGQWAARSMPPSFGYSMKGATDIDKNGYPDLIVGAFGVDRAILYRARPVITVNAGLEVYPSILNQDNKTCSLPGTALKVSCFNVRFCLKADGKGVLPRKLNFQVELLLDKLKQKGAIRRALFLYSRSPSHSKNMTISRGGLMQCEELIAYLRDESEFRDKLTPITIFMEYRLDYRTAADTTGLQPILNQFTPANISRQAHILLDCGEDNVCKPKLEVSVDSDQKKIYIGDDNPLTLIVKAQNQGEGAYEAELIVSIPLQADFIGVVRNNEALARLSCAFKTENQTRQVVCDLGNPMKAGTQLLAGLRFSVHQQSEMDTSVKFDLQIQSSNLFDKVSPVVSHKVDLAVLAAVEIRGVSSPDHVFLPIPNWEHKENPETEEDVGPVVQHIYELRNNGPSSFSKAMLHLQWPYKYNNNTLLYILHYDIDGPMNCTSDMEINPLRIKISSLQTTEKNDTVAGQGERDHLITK
T2 sequence (P06756 891-992 partner limits assumed): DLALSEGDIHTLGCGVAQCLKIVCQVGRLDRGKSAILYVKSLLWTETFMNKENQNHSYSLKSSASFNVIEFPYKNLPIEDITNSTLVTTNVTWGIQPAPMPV
T2 sequence (P05106 27-718 limits assumed): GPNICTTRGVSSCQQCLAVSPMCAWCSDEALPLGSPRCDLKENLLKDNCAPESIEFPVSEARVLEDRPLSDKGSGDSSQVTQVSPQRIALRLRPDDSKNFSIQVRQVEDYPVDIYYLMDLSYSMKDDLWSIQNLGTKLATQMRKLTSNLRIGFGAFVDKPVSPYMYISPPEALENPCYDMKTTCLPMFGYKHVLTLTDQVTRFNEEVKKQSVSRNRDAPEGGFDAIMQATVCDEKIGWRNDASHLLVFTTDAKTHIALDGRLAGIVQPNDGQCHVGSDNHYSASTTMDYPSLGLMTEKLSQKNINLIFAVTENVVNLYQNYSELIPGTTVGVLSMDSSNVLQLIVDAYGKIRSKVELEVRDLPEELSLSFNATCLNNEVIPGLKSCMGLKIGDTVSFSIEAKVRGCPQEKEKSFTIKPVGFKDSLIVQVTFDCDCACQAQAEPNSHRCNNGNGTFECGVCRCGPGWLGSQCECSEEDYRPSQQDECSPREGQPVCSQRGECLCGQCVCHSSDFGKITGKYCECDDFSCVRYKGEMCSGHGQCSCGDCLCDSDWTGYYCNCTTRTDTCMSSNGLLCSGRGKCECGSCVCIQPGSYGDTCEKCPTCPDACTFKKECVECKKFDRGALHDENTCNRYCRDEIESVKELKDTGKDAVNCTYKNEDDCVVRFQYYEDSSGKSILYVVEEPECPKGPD
Method: After an ELISA plate was coated with diluents obtained by diluting 3 kinds of integrin proteins (alpha5beta1 (α5β1; α5: NCBI Accession No. P08648, β1: NCBI Accession No. P05556), alphaVbeta1 (αVβ1; αV: NCBI Accession No. P06756, β1: NCBI Accession No. P05556), and alphaVbeta3 (αVβ3; αV: NCBI Accession No. P06756, β3: NCBI Accession No. P05106); R&D systems)) in PBS at a concentration of 5 μg/ml (18 hours, 4° C.), it was blocked with 1% (v/v) BSA at a room temperature for 2 hours. Thereafter, it was treated with Ang2 protein having FLAG sequences (DYKDDDDK, Sigma) tagged at its N-terminal (FLAG-Ang2, 0.1 ml of Ang2 protein solution diluted in PBS at a concentration of 10 μg/ml), incubated at a room temperature for 2 hours, and washed 5 times with PBS-t (0.1% (v/v) triton X-100 in PBS). Then, it was followed by the addition of anti-FLAG antibody (Sigma) conjugated with horse radish peroxidase (HRP) and washed 5 times with PBS-t. Binding between Ang2 and 3 kinds of the integrins was verified indirectly by measuring the quantity of anti-FLAG antibody remaining in the ELISA plate through color development reaction using TMB (3,3,5,5-tetramethylbenzidine) as a substrate of HRP. As a negative control, one plate which was blocked without Ang2 protein treatment (BSA treatment only) was used. […]

Molecule: LNYRI HLKGL TGTAG (LNYRIHLKGLTGTAG; Synthetic Peptide 24) [SEQ ID No. 24]
inhibition activity against the binding of Ang2 and integrin (U87MG cells [1]): remarkably high inhibition activity

Molecule: HTTNG IYTLT FPNST (HTTNGIYTLTFPNST; Synthetic Peptide 3) [SEQ ID No. 3]
inhibition activity against the binding of Ang2 and integrin (U87MG cells [1]): remarkably high inhibition activity; also recorded: excellent integrin-Ang2 binding inhibition activity

Molecule: WKGSG YSLKA TTMMI (WKGSGYSLKATTMMI; Synthetic Peptide 40) [SEQ ID No. 40]
inhibition activity against the binding of Ang2 and integrin (U87MG cells [1]): remarkably high inhibition activity

Molecule: IYTLT FPNST EEIKA (IYTLTFPNSTEEIKA; Synthetic Peptide 4) [SEQ ID No. 4]
inhibition activity against the binding of Ang2 and integrin (U87MG cells [1]): remarkably high inhibition activity; also recorded: excellent integrin-Ang2 binding inhibition activity

Molecule: EYWLG NEFVS QLTNQ (EYWLGNEFVSQLTNQ; Synthetic Peptide 15) [SEQ ID No. 15, 15 consecutive amino acids (352 to 366) of the Ang2 protein]
Ang2 dependent cell adhesion inhibition activity (U87MG cells [1]; listed as 15): best Ang2 dependent cell adhesion inhibition activity | Ang2 dependent cell adhesion inhibition activity (U87MG cells [1]; listed as Peptide 15): excellent Ang2-dependent cell adhesion inhibition activity | inhibition activity against the binding of Ang2 and integrin (U87MG cells [1]): remarkably high inhibition activity

Molecule: NEFVS QLTNQ QRYVL (NEFVSQLTNQQRYVL; Synthetic Peptide 16) [SEQ ID No. 16]
inhibition activity against the binding of Ang2 and integrin (U87MG cells [1]): remarkably high inhibition activity

Molecule: QLTNQ QRYVL KIHLK (QLTNQQRYVLKIHLK; Synthetic Peptide 17) [SEQ ID No. 17]
inhibition activity against the binding of Ang2 and integrin (U87MG cells [1]): remarkably high inhibition activity

binding level to Tie2 compared with wild type Ang2 (Tie2 proteins (Q02763)): did not show any significant differences | binding level to integrin relative to wild type Ang2 (integrin (αVβ3)): ≤ 50% | inhibition of Ang2-integrin binding by Q362A modification (integrin (αVβ3)): ≥ 50%
B1: Q362A: FLAG-Ang2 protein modified form where glutamine at amino acid 362 (SEQ ID No. 42) is substituted by alanine (protein)
chain: MWQIVFFTLSCDLVLAAAYNNFRKSMDSIGKKQYQVQHGSCSYTFLLPEMDNCRSSSSPYVSNAVQRDAPLEYDDSVQRLQVLENIMENNTQWLMKLENYIQDNMKKEMVEIQQNAVQNQTAVMIEIGTNLLNQTAEQTRKLTDVEAQVLNQTTRLELQLLEHSLSTNKLEKQILDQTSEINKLQDKNSFLEKKVLAMEDKHIIQLQSIKEEKDQLQVLVSKQNSIIEELEKKIVTATVNNSVLQKQQHDLMETVNNLLTMMSTSNSAKDPTVAKEEQISFRDCAEVFKSGHTTNGIYTLTFPNSTEEIKAYCDMEAGGGGWTIIQRREDGSVDFQRTWKEYKVGFGNPSGEYWLGNEFVSALTNQQRYVLKIHLKDWEGNEAYSLYEHFYLSSEELNYRIHLKGLTGTAGKISSISQPGNDFSTKDGDNDKCICKCSQMLTGGWWFDACGPSNLNGMYYPQRQNTNKFNGIKWYYWKGSGYSLKATTMMIRPADF
modifications: FLAG tag; Human Ang2 protein
induction level of cancer cell invasion compared with wild type Ang2 protein (U87MG cells [2]): remarkably low induction level of cancer cell invasion (approximately half or so)

From US9193768B2, “Peptide for inhibition of binding between angiopoietin-2 and integrin and use thereof” (Samsung Electronics Co., Ltd., priority 2012, dated 2015)
